Experimental data from PubChem BioAssay AID849 (SRMLSC, 2007).
Calls of active or inactive are those of the source. How the calls were made is not given here.

These molecules were tested on Saccharomyces cerevisiae lifespan shortening, growth inhibition (assay: Saccharomyces cerevisiae growth inhibition potency – dose response (AID 849);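 further: yeast growth read as optical density after two days at 30 degrees C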).
Molecule `CCOC(=O)c1c(-c2ccc(-c3ccccc3)cc2)csc1NC(=O)CCN1CCOCC1` has an IC50 of 19.1 µM.
With `Cc1ccc(-n2nnc3c(=O)n(CC(=O)N4CCC(C)CC4)cnc32)cc1` the IC50 was > 100 µM (inactive).
`COc1ccc2nc(NC(=S)N(C)C)sc2c1` was tested, and the IC50 was > 100 µM (inactive).
`O=C(ONC1=NCCCCC1)c1ccc(Cl)cc1` was tested, and the IC50 was 6.15 µM.
`CC(C)(C)c1ccc(NC(=O)COC(=O)c2ccc([N+](=O)[O-])s2)cc1` was tested, and the IC50 was 34 µM.
With `O=c1oc2ccccc2c(N2CCCC2)c1CN1CCCC1` the IC50 was > 100 µM (inactive).
For `CCOC(=O)C1C(C)N=C2SCC(=O)N2C1c1cccc(Br)c1` (configuration not stated), the IC50 was > 100 µM (inactive).
`Cc1nn2c3ccccc3nc2c2ccccc12` gave an IC50 of 41.6 µM.
For `c1ccc(-c2csc3nnc(SCc4ccc5c(c4)OCO5)n23)cc1`, the IC50 was > 100 µM (inactive).
`COc1ccc(-c2cc(C(=O)N3CCN(c4ncccn4)CC3)c3ccccc3n2)c(OC)c1` was tested, and the IC50 was 49.8 µM.
For `O=Nc1c(O)n(Cc2ccc(Cl)c(Cl)c2)c2ccccc12`, the IC50 was > 100 µM (inactive).
In the case of `CC(C)c1ccc(NC(=S)NCCc2c[nH]c3ccccc23)cc1`, the IC50 is reported as > 100 µM (inactive).
`CCN1/C(=C/c2ccc3cc(C)ccc3[n+]2CC)Sc2ccccc21` was tested, and the IC50 was 4.48 µM.
Molecule `Cn1c2ccccc2c(=O)n2c(=O)c3ccccc3cc12` has an IC50 of 52.5 µM.
In the case of `CC1/C(=N/O)CC(c2ccccc2)N(C)C1c1ccccc1` (configuration not stated), the IC50 is reported as > 100 µM (inactive).
`COC(=O)c1ccc(CSc2ccc3nnc(-c4cccc(F)c4)n3n2)o1` was tested, and the IC50 was > 100 µM (inactive).
For `CC(=O)N1N=C(c2ccc(Cl)cc2)OC1(C)C`, the IC50 was > 100 µM (inactive).
`CC1=C/C(=N\OS(=O)(=O)c2ccccc2)C(C)=CC1=O` gave an IC50 of 1.54 µM.
With `CCn1c2ccc(C)cc2c2nc3cc(C(=O)O)ccc3nc21` the IC50 was 9.6 µM.
With `COc1ccc(OCc2nnc3n2N=C(c2ccc(OC)cc2)CS3)cc1` the IC50 was > 100 µM (inactive).
`Cc1ccc(N2CCOCC2)c2c1C(=O)c1ccccc1C2=O` showed an IC50 of 9.55 µM.
For `O=c1c2c([N+](=O)[O-])cc([N+](=O)[O-])cc2sn1-c1ccc(Br)cc1`, the IC50 was > 100 µM (inactive).
`CC1(C)Cc2c(C#N)c(N)sc(=S)c2CO1` was tested, and the IC50 was > 100 µM (inactive).
With `CC1CCC2(CC1)NC(=S)N(c1ccccc1)N2` (configuration not stated) the IC50 was 23.6 µM.
`COc1ccc(C(=O)N/N=C/c2sc3ccccc3c2O)cc1` was tested, and the IC50 was > 100 µM (inactive).
`Oc1c(I)cc(I)c2cccnc12` showed an IC50 of 23.9 µM.
With `O=S(=O)(Nc1ccc(-n2cccc2)cc1)c1ccc(Cl)cc1Cl` the IC50 was > 100 µM (inactive).
Molecule `CC(C)(C)c1nnc(N/N=C/c2cc(Br)ccc2O)n(N)c1=O` has an IC50 of 50 µM.
In the case of `CCn1c(Sc2nc(C)nc3scc(-c4cccs4)c23)n[nH]c1=O`, the IC50 is reported as > 100 µM (inactive).
With `Clc1ccc(N/N=C/c2cccnc2)cc1` the IC50 was > 100 µM (inactive).
Work on `O=c1cc(-c2ccccc2)n(S(=O)(=O)c2ccccc2)o1` yielded an IC50 of 39.8 µM.
In the case of `Cc1ccc(/C=C2\C(=O)NC(=S)N(c3ccccc3F)C2=O)s1`, the IC50 is reported as 13.9 µM.
In the case of `O=C(O)CCSc1nnc(-c2ccccc2)n1-c1ccccc1`, the IC50 is reported as > 100 µM (inactive).
With `Cc1cc(-c2n[nH]c(=S)n2/N=C/c2cc([N+](=O)[O-])ccc2Cl)n[nH]1` the IC50 was > 100 µM (inactive).
In the case of `CC(=O)c1c(C)oc2c1C(=O)c1ccccc1C2=O`, the IC50 is reported as > 100 µM (inactive).
Work on `CCCc1cc(C(=O)Cc2ccc(F)cc2)c(O)cc1O` yielded an IC50 of 48.3 µM.
For `CC(C)CNC(=O)CN(C1CCCCC1)S(C)(=O)=O`, the IC50 was > 100 µM (inactive).
`Cc1nc(Cl)c2oc3ccccc3c2n1` was tested, and the IC50 was > 100 µM (inactive).
`Cc1ncc(CC(=O)n2cc(C(=O)c3cc(Cl)ccc3O)cn2)s1` showed an IC50 of 12 µM.
`O=c1c(-c2ccccc2)nc(-c2ccccc2)cn1O` gave an IC50 of 15.1 µM.
Work on `c1ccc(-c2ccc(C(c3ccccc3)n3ccnc3)cc2)cc1` (configuration not stated) yielded an IC50 of 1.67 µM.
`CN(c1ccccc1)c1ccc(/C=C/[N+](=O)[O-])cc1` was tested, and the IC50 was 49.2 µM.
`O=C(OCn1ncc(Cl)c(Cl)c1=O)c1ccccc1Cl` showed an IC50 of 20.7 µM.
For `CC1CCCC2(C1)NC(=S)c1c(sc3c1CCCC3)N2` (configuration not stated), the IC50 was > 100 µM (inactive).
With `Cc1cccc(/C(N)=N/OC(=O)c2ccc(F)cc2)c1` the IC50 was 23.8 µM.
Work on `COc1ccc(-c2cc3nc(C)cc(N4CC(C)CC(C)C4)n3n2)cc1` (configuration not stated) yielded an IC50 of 42.2 µM.
With `COC(=O)CSCc1nc2ccccc2[nH]c1=O` the IC50 was > 100 µM (inactive).
Work on `C=CCNC(=S)N/N=C(\C)c1ccccn1` yielded an IC50 of 17.6 µM.
`COc1ccc(NC(=O)C2CCCN2S(=O)(=O)c2cccc3cccnc23)c(OC)c1` (configuration not stated) showed an IC50 of 40.5 µM.
In the case of `Oc1c(Br)cc(Br)cc1/C=N/c1nc2c(s1)CCCC2`, the IC50 is reported as 17.5 µM.
`CCOc1cc(/C=N/Nc2ccccc2Cl)ccc1OCC(=O)O` showed an IC50 of 11.6 µM.
`O=C(O)c1ccc2c3c(ncnc13)-c1ccccc1C2=O` gave an IC50 of 1.5 µM.
In the case of `Cc1ccc(-c2nc3sc(C(N)=O)c(N)c3c3c2CCCC3)cc1`, the IC50 is reported as > 100 µM (inactive).
With `Cc1ccc(O)c(-c2cc(-c3ccccc3C)[nH]n2)c1` the IC50 was 24.3 µM.
`Cc1cc(C)cc(NS(=O)(=O)c2cnc(Cl)c(Cl)c2)c1` gave an IC50 of 47.5 µM.
In the case of `Oc1ccc(N=Nc2cccc(Cl)c2)cc1C=Nc1ccc(N2CCOCC2)cc1`, the IC50 is reported as > 100 µM (inactive).
Work on `Clc1cccc(CN2COc3c(cc(Cl)c4cccnc34)C2)c1` yielded an IC50 of 7.28 µM.
`CC/C(C)=N/Nc1cccc([N+](=O)[O-])c1` showed an IC50 of 7.6 µM.
With `COc1ccccc1OCC(=O)n1cc(C(=O)c2cc(Cl)cc(Cl)c2O)cn1` the IC50 was 5.95 µM.
`Oc1cccc(C=NCc2ccccc2)c1O` gave an IC50 of 9.17 µM.
`O=c1cccc2n1Cc1cc3ccccc3nc1-2` gave an IC50 of 29.8 µM.
For `COc1cc(/C=N/N(C)c2ccccc2)cc(Cl)c1O`, the IC50 was > 100 µM (inactive).
For `CCCCNC(=S)NCc1ccc2c(c1)cc(C)n2C`, the IC50 was > 100 µM (inactive).
In the case of `O=C(N/N=C\c1cccc([N+](=O)[O-])c1O)C1COc2ccccc2O1` (configuration not stated), the IC50 is reported as 24.8 µM.
For `O=[N+]([O-])c1ccccc1-c1cc(-c2cc(Cl)ccc2O)n[nH]1`, the IC50 was > 100 µM (inactive).
For `N#CSCC(=O)c1cccc2ccccc12`, the IC50 was 8.65 µM.
`O=C(Nc1cc(C(F)(F)F)ccc1Cl)C(Sc1cccc[n+]1[O-])c1ccccc1` (configuration not stated) showed an IC50 of 4.89 µM.
In the case of `Cc1ccc(N2NC(C)(c3cccs3)NC2=S)cc1` (configuration not stated), the IC50 is reported as > 100 µM (inactive).
`CC(=O)Oc1ccc(N2C(=O)C3C(C2=O)C2(C)C=CC3(C)O2)cc1` (configuration not stated) was tested, and the IC50 was > 100 µM (inactive).
For `COc1ccccc1N1CCN(C(CNC(=O)c2ccco2)c2cccnc2)CC1` (configuration not stated), the IC50 was > 100 µM (inactive).
With `O=c1[nH]c(Nc2ccccc2)cc2ccccc12` the IC50 was > 100 µM (inactive).
Molecule `O=C(N/N=C/c1cc2c3c(c1O)CCCN3CCC2)c1ccccc1O` has an IC50 of 37.5 µM.
For `Cc1ccc(C(=O)O/N=C/c2c(N3CCOCC3)n(C)c3ccccc23)cc1`, the IC50 was > 100 µM (inactive).
In the case of `O=C1C=C(c2ccccc2)C(=O)N1Nc1ccccc1`, the IC50 is reported as 12 µM.
In the case of `Cc1ccc2nc(-c3ccc(NS(=O)(=O)c4ccc(F)c(F)c4)cc3)sc2c1`, the IC50 is reported as > 100 µM (inactive).
Work on `O=C(OCn1ncc(Br)c(Br)c1=O)c1ccc(F)cc1` yielded an IC50 of 6.92 µM.
For `CCSc1ncc(/C=N/Nc2ccc(Cl)cc2)n1C`, the IC50 was 36.7 µM.
For `Oc1ccc(/C=N/N=C(c2ccccc2)c2ccccc2)c(O)c1O`, the IC50 was 23.7 µM.
`O=C(Oc1csc(=S)n1C(=O)c1ccccc1)c1ccccc1` was tested, and the IC50 was > 100 µM (inactive).
Work on `O=C(Oc1ccc(Cl)c2cccnc12)c1ccco1` yielded an IC50 of 14.6 µM.
For `O=C(Nc1cccc(N=Cc2cc(Cl)cc(Br)c2O)c1)c1ccco1`, the IC50 was > 100 µM (inactive).
`CCN1/C(=C(\O)c2ccccc2)C(=O)c2ccccc2S1(=O)=O` was tested, and the IC50 was > 100 µM (inactive).
